Data on nine molecules can be found in ChEMBL document CHEMBL3351990, “Jiangrines A-F and jiangolide from an actinobacterium, Jiangella gansuensis” (J Nat Prod, 2014).

What is called pIC50 is the IC50 on a negative log10 scale, so that one unit is a factor of ten. Broadly, the inhibition is the share of the control response that was lost under treatment.

The subject of data set [1] is RAW264.7. Briefly: Cytotoxicity against mouse RAW264.7 cells assessed as cell viability at 100 uM. It counts as cell-based. To be noted: raw264.7, 100 µM.
Data set [2] has as its system RAW264.7. Briefly: Antiinflammatory activity in mouse RAW264.7 cells assessed as inhibition of LPS-induced NO production incubated for 1 hr prior to LPS-challenge measured after 24 hrs by Greiss assay. The class given is functional, cell-based.
The subject of data set [3] is RAW264.7. Put plainly: Antiinflammatory activity in mouse RAW264.7 cells assessed as inhibition of LPS-induced NO production at 100 uM incubated for 1 hr prior to LPS-challenge measured after 24 hrs by Greiss assay. It counts as functional.

SMILES strings stand for the structures. pIC50: −log10 of the molar value.

With `CO[C@H](c1ccc(C=O)n1CCc1ccc(O)cc1)[C@H](O)CO`, the Activity result in the data set on RAW264.7 [1] is “Non-toxic”. The pIC50 with RAW264.7 [2] is 4.52.
Take `CO[C@@H](c1ccc(C=O)n1CCc1ccc(O)cc1)[C@H](O)CO`: the Activity entry in the data set with RAW264.7 [1] is on record as “Non-toxic”. Besides, the pIC50 in the data set on RAW264.7 [2] is 4.52.
As for `CC(=O)NCCCCCn1cccc1C=O`, in the data set with RAW264.7 [1], the Activity entry is given as “Non-toxic”. Moreover, the pIC50 with RAW264.7 [2] is 4.26.
Take `O=Cc1ccc(CO)n1CCc1ccc(O)cc1`: in the data set on RAW264.7 [1], the Activity entry is given as “Non-toxic”. The pIC50 with RAW264.7 [2] is 4.23.
Turning to `O=c1[nH]cnc2c1-c1cccn1CC2`, the Activity entry in the data set with RAW264.7 [1] is “Non-toxic”. For the same molecule, the inhibition at 100 µM in the data set with RAW264.7 [3] is less than 20%.
For `C[C@H]1/C=C\C[C@H]2[C@@H](CC[C@@H]2O)CC(=O)OC[C@H]2O[C@@H](O1)[C@H](O)[C@@H](O)[C@@H]2O`, in the data set with RAW264.7 [1], the Activity result was “Non-toxic”. In the data set on RAW264.7 [2], the pIC50 is 4.21.
In the case of `O=Cc1ccc([C@H](O)[C@H](O)CO)n1CCc1ccc(O)cc1` (relative stereo), the Activity entry in the data set on RAW264.7 [1] is “Non-toxic”. In addition, in the data set on RAW264.7 [2], the pIC50 is 4.01.
With `O=Cc1ccc([C@H](O)[C@H](O)CO)n1CCc1c[nH]c2ccccc12` (relative stereo), in the data set on RAW264.7 [1], the Activity result was “Non-toxic”. In the data set with RAW264.7 [2], the pIC50 is 4.22.
Consider `COC(=O)[C@@H](N)CCCNC(=N)N[N+](=O)[O-]` [L-NAME], for which, in the data set with RAW264.7 [2], the negative logarithm of the IC50 (pIC50) is 4.27.
